Test [1] concerns the target T1, AuroraA-TPX2 (Homo sapiens, UniProt O14965).
T1 construct: 20 μL of AuroraA-TPX2 KD GST for a final volume of about 41 μL; GST
T1 sequence (O14965 133-383 limits assumed): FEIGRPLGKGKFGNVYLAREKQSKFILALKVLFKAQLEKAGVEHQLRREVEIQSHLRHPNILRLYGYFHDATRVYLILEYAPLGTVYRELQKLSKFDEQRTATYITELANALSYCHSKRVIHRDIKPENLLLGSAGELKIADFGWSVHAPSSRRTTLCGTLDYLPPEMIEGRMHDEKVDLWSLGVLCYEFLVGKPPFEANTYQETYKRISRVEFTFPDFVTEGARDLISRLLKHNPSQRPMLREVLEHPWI
T1 sequence (Q9ULW0 1-43 partner limits assumed): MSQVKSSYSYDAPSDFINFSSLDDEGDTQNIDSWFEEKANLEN
Briefly: AuroraA-TPX2 Homogeneous Time Resolved Fluorescent (HTRF) kinase assay. Format: biochemical. The following applies: average; read-out: AurA_IC50_IP (uM Avg). As for the experimental part: AuroraA-TPX2-Homogeneous Time Resolved Fluorescent (HTRF) Kinase Assay:
The Aurora-A HTRF assay begins with Aurora-A in the presence of ATP phosphorylating the biotinylated peptide PLK. The reaction incubates for about 120 min. Detection reagents are added to quench the reaction. These agents stop the reaction by diluting out the enzyme and chelating the metals due to the presence of EDTA. After addition, the assay is incubated overnight to allow the detection reagents to equilibrate.
The AuroraA HTRF assay comprises 1 μL of compound in 100% DMSO, 20 μL of ATP and biotinylated PLK, and 20 μL of AuroraA-TPX2 KD GST for a final volume of about 41 μL. The final concentration of PLK is about 1 μM. […] Buffer conditions are as follows: 60 mM HEPES pH 7.5, 25 mM NaCl, 10 mM MgCl, 2 mM DTT, 0.05% BSA.
The assay is quenched and stopped with 160 μL of detection reagent. Detection reagents are as follows: Buffer made of 50 mM Tris, pH 7.5, 100 mM NaCl, 3 mM EDTA, 0.05% BSA, 0.1% Tween20. Added to this buffer prior to reading is Steptavidin allophycocyanin (SA-APC) at a final conc in the assay of 0.0005 mg/mL, and europilated anti-phosphoPLK Ab (Eu-anti-PLK) at a final conc of 0.02 nM.
The assay plate is read in either a Discovery or a RubyStar. The eu-anti-PLK is excited at 320 nm and emits at 615 nm to excite the SA-APC which in turn emits at 655 nm.

The target of test [2] is T2, AuroraB (Homo sapiens, UniProt Q96GD4).
T2 construct: 20 μL of AuroraB FL H is for a final volume of 41 μL; His
T2 sequence (Q96GD4 whole entry): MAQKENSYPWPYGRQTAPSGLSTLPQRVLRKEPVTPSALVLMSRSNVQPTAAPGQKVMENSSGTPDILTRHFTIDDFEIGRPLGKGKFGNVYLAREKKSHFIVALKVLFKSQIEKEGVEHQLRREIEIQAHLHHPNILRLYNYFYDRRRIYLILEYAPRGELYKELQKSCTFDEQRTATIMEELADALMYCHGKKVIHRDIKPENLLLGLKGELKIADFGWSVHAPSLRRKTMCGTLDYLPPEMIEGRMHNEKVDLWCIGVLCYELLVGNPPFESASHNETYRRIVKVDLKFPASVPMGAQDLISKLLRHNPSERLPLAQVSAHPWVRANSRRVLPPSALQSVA
Briefly: AuroraB Homogeneous Time Resolved Fluorescent (HTRF) kinase assay. Type of test: biochemical. To be noted: average; read-out: AurB_IC50_IP (uM Avg). As for the experimental part: AuroraB-Homogeneous Time Resolved Fluorescent (HTRF) Kinase Assay:
The AuroraB HTRF assay begins with AuroraB in the presence of ATP phosphorylating the biotinylated peptide Histone H3. The reaction incubates for about 90 min. the reaction is quenched by addition of detection reagents, which stop the reaction by diluting out the enzyme and chelating the metals due to the presence of EDTA. After addition, the assay is incubated for about 60 min to allow detection reagents to equilibrate.
The AuroraB HTRF assay comprises 1 μL of compound in 100% DMSO, 20 μL of ATP and biotinylated Histone H3, and 20 μL of AuroraB FL H is for a final volume of 41 μL. The final concentration of Histone H3 is 0.1 μM. […] Buffer conditions are as follows: 50 mM HEPES pH 7.5, 5 mM NaCl, 0.5 mM MgCl, 0.5 mM MnCl, 2 mM DTT, 0.05% BSA.
The assay is quenched and stopped with 160 μL of detection reagent. Detection reagents are as follows: Buffer made of 50 mM Tris, pH 7.5, 100 mM NaCl, 3 mM EDTA, 0.05% BSA, 0.1% Tween20. Added to this buffer prior to reading is Steptavidin allophycocyanin (SA-APC) at a final conc in the assay of 0.001 mg/mL, and europilated anti-phosphoHistoneH3 Ab (Eu-anti-HisH3) at a final conc of 0.064 nM.
The assay plate is read in either a Discovery or a RubyStar. The eu-anti-HisH3 is excited at 320 nm and emits at 615 nm to excite the SA-APC which in turn emits at 655 nm.
For orientation: Time-resolved FRET reads energy transfer from a long-lived donor to a nearby acceptor.

23 molecules from patent publication US8557816B2, “Aurora kinase modulators and method of use” (Amgen Inc., priority 2007, dated 2013) can be followed below.

For the molecule `c1ccc(-c2nnc(Nc3ccc(Oc4ccnc5cc(N6CCOCC6)ccc45)cc3)c3ccccc23)cc1` [Example 42, N-(4-(7-Morpholinoquinolin-4-yloxy)phenyl)-4-phenylphthalazin-1-amine], the IC50 in test [1] came to 0.011 µM; in test [2], 0.002 µM.
For `CC(=O)Nc1ccc2nccc(Oc3ccc(Nc4nnc(-c5ccccc5)c5ccccc45)cc3)c2c1` [Example 43, N-(4-(4-(4-Phenylphthalazin-1-ylamino)phenoxy)quinolin-6-yl)acetamide] the same measures were 0.112 µM and 0.008 µM.
Turning to `N#Cc1cnc2c(Oc3ccc(Nc4nnc(-c5ccccc5)c5ccccc45)cc3)ccnc2c1` [Example 44, 8-(4-(4-phenylphthalazin-1-ylamino)phenoxy)-1,5-naphthyridine-3-carbonitrile], the IC50 worked out at 0.332 µM in test [1] and 0.015 µM in test [2].
For `Cn1cc(-c2ccc3nccc(Oc4ccc(Nc5nnc(-c6ccccc6)c6ccccc56)cc4)c3c2)cn1` [Example 45, N-(4-(6-(1-Methyl-1H-pyrazol-4-yl)quinolin-4-yloxy)phenyl)-4-phenylphthalazin-1-amine] the same measures were 0.079 µM and 0.03 µM.
The like results for `NC(=O)c1cc2nccc(Oc3ccc(Nc4nnc(-c5ccccc5)c5ccccc45)cc3)c2s1` [Example 46, 7-(4-(4-phenylphthalazin-1-ylamino)phenoxy)thieno[3,2-b]pyridine-2-carboxamide] were, in that order, 0.015 µM and 0.001 µM.
For `COc1ccc(F)cc1-c1nnc(Nc2ccc(Oc3ccnc4cc(C(N)=O)ccc34)cc2)c2ccccc12` [Example 47, 4-(4-(4-(5-fluoro-2-methoxyphenyl)phthalazin-1-ylamino)phenoxy)quinoline-7-carboxamide] the same measures were 5 µM and 0.138 µM.
Turning to `FC(F)Oc1cnc2c(Sc3ccc(Nc4nnc(-c5ccccc5)c5ccccc45)cc3)ccnc2c1` [Example 387, N-(4-(7-(difluoromethoxy)-1,5-naphthyridin-4-ylthio)phenyl)-4-phenylphthalazin-1-amine], the values for the IC50 in test [1] and in test [2] were 0.135 µM and 0.048 µM, respectively.
For `Oc1ccc2nccc(Sc3ccc(Nc4nnc(-c5ccc(Cl)cc5)c5ccccc45)cc3)c2c1` [Example 388, 4-(4-(4-(4-Chlorophenyl)phthalazin-1-ylamino)phenylthio)quinolin-6-ol] the same measures were 0.02 µM and 0.003 µM.
As for `COCCOCCOc1ccc2nccc(Sc3ccc(Nc4nnc(-c5ccc(Cl)cc5)c5ccccc45)cc3)c2c1` [Example 389, 4-(4-Chlorophenyl)-N-(4-(6-(2-(2-methoxyethoxy)ethoxy)quinolin-4-ylthio)phenyl)phthalazin-1-amine], the results for the IC50 in test [1] and in test [2] were 0.021 µM and 0.022 µM, respectively.
As for `CS(=O)(=O)CCOc1ccc2nccc(Sc3ccc(Nc4nnc(-c5ccc(Cl)cc5)c5ccccc45)cc3)c2c1` [Example 390, 4-(4-Chlorophenyl)-N-(4-(6-(2-(methylsulfonyl)ethoxy)quinolin-4-ylthio)phenyl)phthalazin-1-amine], the IC50 in test [1] and in test [2] was over 125 µM throughout.
For the molecule `Clc1ccc(-c2nnc(Nc3ccc(Sc4ccnc5ccoc45)cc3)c3ccccc23)nc1` [Example 391, 4-(5-Chloropyridin-2-yl)-N-(4-(furo[3,2-b]pyridin-7-ylthio)phenyl)phthalazin-1-amine], the IC50 in test [1] worked out at 0.601 µM; in test [2] it was 0.018 µM.
For the molecule `COc1cc2nccc(Oc3ccc(Nc4nnc(-c5ccccc5)c5ccccc45)cc3)c2cc1C#N` [Example 392, 7-Methoxy-4-(4-(4-phenylphthalazin-1-ylamino)phenoxy)quinoline-6-carbonitrile], the figures for the IC50 in test [1] and in test [2] were 0.159 µM and 0.26 µM, respectively.
For `COCCOc1cc2nccc(Oc3ccc(Nc4nnc(-c5ccccc5)c5ccccc45)cc3)c2cc1OC` [Example 393, N-(4-(6-Methoxy-7-(2-methoxyethoxy)quinolin-4-yloxy)phenyl)-4-phenylphthalazin-1-amine] the same measures were 0.013 µM and 0.017 µM.
Take `COc1cnc2c(Oc3ccc(Nc4nnc(-c5ccc(Cl)c(OCCS(C)(=O)=O)c5)c5ccccc45)cc3)ccnc2c1` [Example 394, 4-(4-Chloro-3-(2-(methylsulfonyl)ethoxy)phenyl)-N-(4-(7-methoxy-1,5-naphthyridin-4-yloxy)phenyl)phthalazin-1-amine]: the IC50 in test [1] turned out to be 0.015 µM; in test [2], 0.009 µM.
The like results for `COCCOc1cc(-c2nnc(Nc3ccc(Oc4ccnc5cc(OC)cnc45)cc3)c3ccccc23)ccc1C` [Example 395, N-(4-(7-Methoxy-1,5-naphthyridin-4-yloxy)phenyl)-4-(3-(2-methoxyethoxy)-4-methylphenyl)phthalazin-1-amine] were, in that order, 0.047 µM and 0.012 µM.
Regarding `COc1cnc2c(Sc3ccc(Nc4nnc(-c5ccn(C)c(=O)c5)c5ccccc45)cc3)ccnc2c1` [Example 396, 4-(4-(4-(7-Methoxy-1,5-naphthyridin-4-ylthio)phenylamino)phthalazin-1-yl)-1-methylpyridin-2(1H)-one], the IC50 was 0.05 µM in test [1] and over 125 µM in test [2].
The like results for `Cc1ccc(-c2nnc(Nc3ccc(Sc4ccnc5ccoc45)cc3)c3ccccc23)cc1F` [Example 398, 4-(3-Fluoro-4-methylphenyl)-N-(4-(furo[3,2-b]pyridin-7-ylthio)phenyl)phthalazin-1-amine] were, in that order, 1.73 µM and 0.059 µM.
For the molecule `Nc1ccc2nccc(Sc3ccc(Nc4nnc(-c5ccccc5)c5ccccc45)cc3)c2c1` [Example 399, N-(4-(6-Aminoquinolin-4-ylthio)phenyl)-4-phenylphthalazin-1-amine], the IC50 in test [1] amounted to 0.286 µM; in test [2], 0.025 µM.
Take `COc1cnc2c(Sc3ccc(Nc4nnc(C5=CCNCC5)c5ccccc45)cc3)ccnc2c1` [Example 401, N-(4-(7-Methoxy-1,5-naphthyridin-4-ylthio)phenyl)-4-(1,2,3,6-tetrahydropyridin-4-yl)phthalazin-1-amine]: the values for the IC50 in test [1] and in test [2] were 0.847 µM and 0.052 µM, respectively.
Turning to `COc1cnc2c(Sc3ccc(Nc4nnc(OC)c5ccccc45)cc3)ccnc2c1` [Example 402, 4-Methoxy-N-(4-(7-methoxy-1,5-naphthyridin-4-ylthio)phenyl)phthalazin-1-amine], the IC50 in test [1] was 0.167 µM; in test [2] it was 0.015 µM.
For `COc1cnc2c(Sc3ccc(Nc4nnc(OCCC5CCCCN5)c5ccccc45)cc3)ccnc2c1` (stereo not shown) [Example 403, N-(4-(7-Methoxy-1,5-naphthyridin-4-ylthio)phenyl)-4-(2-(piperidin-2-yl)ethoxy)phthalazin-1-amine] the same measures were 0.239 µM and 0.005 µM.
Regarding `COc1cnc2c(Sc3ccc(Nc4nnc(C#N)c5ccccc45)cc3)ccnc2c1` [Example 404, 4-(4-(7-Methoxy-1,5-naphthyridin-4-ylthio)phenylamino)phthalazine-1-carbonitrile], the IC50 in test [1] was found to be 0.447 µM; in test [2], 0.009 µM.
The like results for `O=c1ccc2nccc(Sc3ccc(Nc4nnc(-c5ccc(Cl)cn5)c5ccccc45)cc3)c2[nH]1` [Example 405, 8-(4-(4-(5-Chloropyridin-2-yl)phthalazin-1-ylamino)phenylthio)-1,5-naphthyridin-2(1H)-one] were, in that order, 0.042 µM and 0.007 µM.
